Assay [1] has as its system maize transcripts (corn genes on the microarray). Put plainly: Agilent single-color global gene expression profiling of corn leaf tissue 2 h after spray treatment. In kind it is in vivo, Zea maize (corn). Particulars: for Regulation: Table 1: corn genes, 1-MCP alone, direction of change per probe/gene. As to the method: Hybrid corn seed (one plant per pot) was planted in 1 quart pots filled with FAFARD 3B™ potting mix (Conrad Fafard, Inc., Agawam, Mass.). Corn was grown in a greenhouse with a 12 hr light cycle and watered every 24 hours or as needed to maintain stress free conditions. When the corn plants reached the V10 growth stage, the pots were arranged into a randomized complete block design with 4 plants with 3 replications per treatment. Corn plants were treated using a standard CO2 sprayer with 20 gal/acre carrier volume.
Treatments were: • Control: Oil/Adjuvant check using 0.035% v/v the organosilicone surfactant SILWET L-77 (Helena Chemical Co., Collierville, Tenn.) • Compound 1: A17492F (MCP) 25 g active ingredient/hectare (ai/ha)+0.035% SILWET surfactant • Compound 2: COMPASS fungicide 1x+0.035% SILWET surfactant • Combination (1 and 2): 1 MCP 25 g/ha+COMPASS fungicide 1x
Two hours after the spray application, upper leaves that had received the spray were sampled. For each plant, five, 2 inch pieces of leaves were taken, cut into small pieces and combined into a 50 ml polypropylene tube. Samples were immediately frozen on dry ice and sent on dry ice overnight to the laboratory for processing.
A single-color Agilent global gene expression profiling design was used to define differentially expressed genes for treated in reference to untreated maize leaf tissues. Three technical array replicates (Agilent Technologies Inc., Santa Clara, Calif.) were hybridized to compare different transcript abundance between leaf tissues treated with the COMPASS fungicide and/or 1-MCP in reference to untreated leaf tissues.
A Dow AgroSciences custom generated 60-mer comprehensive transcriptome-wide Zea maize oligonucleotide array was used to carry out microarray hybridizations. This array represents more than 58,000 different maize transcripts (Agilent Technologies Inc., Santa Clara, Calif.) obtained from public data sources. Microarray chips were printed using an Agilent format 2×105K, including 10 copies of 100 probes, 2 copies of 44,196 probes 1 copy of 14,355 probes in addition to 1,325 Agilent spike-in controls. The 60-mer unique and specific oligonucleotides were synthesized in-situ using the Sure-Print technology from the manufacturer.
Samples of 30-50 mg of frozen leaf tissues were resuspended in 450 μL of extraction buffer RLT from the RNeasy™ Kit for RNA extraction (Qiagen, Valencia, Calif.). Tissues were then ground to a fine powder by adding one 3 mm grinding bead to each frozen sample and grinding for 3 minutes using a GenoGrinder instrument at a rate of 300, 1×. Total RNA was purified following the manufacturer's instructions. Purified total RNA was then quantified and quality controlled using a NanoDrop™ spectrophotometer and visualized by standard 1% Agarose gel electrophoresis.
For labeling, a total of 1.0 μg of purified RNA from treated and untreated tissues was reverse transcribed, amplified and labeled with Cy3-CTP following the Agilent (Santa Clara, Calif.) one-color microarray-based gene expression QuickAmp™ labeling protocol. Since Dow AgroSciences-generated Zea maize AGILENT™ microarrays for gene expression (P/N G4503A, Design ID 022232) contain internal spike-in controls a one-color RNA spike-in kit (Agilent, Santa Clara, Calif.) was also labeled according to manufacturer's instructions. Samples were reverse transcribed using MMLV Reverse Transcriptase and amplified using a T7 RNA Polymerase. After amplification cRNA was purified using Qiagen's RNeasy mini spin columns and quantified using a NanoDrop spectrophotometer. Specific activity for Cy3 was determined by the following formula: […]
Oligo gene expression arrays were hybridized using the Agilent Technologies (Santa Clara, Calif.) Gene Expression Hybridization kit, Wash Buffer kit, Stabilization and Drying Solution following the manufacturer's instructions. Hybridizations were carried out on a fully automated TECAN HS4800 PRO™ (TECAN U.S., Research Triangle Park, N.C.). […]

Assay [2] relates to Arabidopsis genes on the microarray. The assay can be described thus: Agilent single-color global gene expression profiling of Arabidopsis leaf tissue 2 h after spray treatment. In kind it is in vivo, Arabidopsis thaliana (variety Columbia). The following applies: for Regulation^a: direction per probe/gene. As to the method: Thirteen Arabidopsis seeds (variety Columbia) were planted in 6 inch pots filled with sandy clay medium. After emergence, pots were thinned to 10 plants per pot. Plants were grown in a greenhouse with a 12 hr light cycle and watered every 24 hours or as needed to maintain stress free conditions. When the Arabidopsis plants reached the vegetative (>BBCH 11<BBCH 30) stage (approx. 2-3 wks from planting), the pots were arranged into a randomized complete block design with 10 plants with 3 replications per treatment. The plants were treated using a standard CO2 sprayer with 20 gal/A carrier volume.
Control: Oil/Adjuvant check (0.035% v/v SILWET adjuvant L-77)
Compound 1: A17492F (MCP) 25 g ai /ha+0.035% SILWET adjuvant
Compound 2: COMPASS fungicide 1x+0.035% SILWET adjuvant
Combination: 1 MCP 25 g/ha+COMPASS fungicide 1x
Two hours after the spray application, leaves that had received the spray were sampled. For each treatment, two leaves were taken from each of the 10 plants and combined into a 50 ml polypropylene tube. Samples were immediately frozen on dry ice and sent on dry ice overnight to the laboratory for processing.
A single-color Agilent global gene expression profiling design was used to define differentially expressed genes for treated in reference to untreated Arabidopsis leaf tissues. Three technical array replicates (Agilent Technologies Inc., Santa Clara, Calif.) were hybridized to compare different transcript abundance between leaf tissues treated with Strobilurin and/or 1-MCP in reference to untreated leaf tissues. Arabidopsis slides, Product #G2519F, Design ID 021169 were obtained from Agilent Technologies.
Samples of 30-50 mg of frozen leaf tissues were resuspended in 450 μL of extraction buffer RLT from the RNeasy Kit for RNA extraction (Qiagen, Valencia, Calif.). Tissues were then ground to a fine powder by adding one 3 mm grinding bead to each frozen sample and grinding for 3 minutes using a GenoGrinder at a rate of 300, 1×. Total RNA was purified following the manufacturer's instructions. Purified total RNA was then quantified and quality controlled using a NanoDrop spectrophotometer and visualized by standard 1% Agarose gel electrophoresis.
For labeling, a total of 1.0 μg of purified RNA from treated and untreated tissues was reverse transcribed, amplified and labeled with Cy3-CTP following the Agilent (Santa Clara, Calif.) one-color microarray-based gene expression QuickAmp labeling protocol. Since Agilent Arabidopsis microarrays for gene expression (Product #G2519F, Design ID 021169) contain internal spike-in controls a one-color RNA spike-in kit (Agilent, Santa Clara, Calif.) was also labeled according to manufacturer's instructions. Samples were reverse transcribed using MMLV Reverse Transcriptase and amplified using a T7 RNA Polymerase. After amplification cRNA was purified using Qiagen's RNeasy mini spin columns and quantified using a NanoDrop spectrophotometer. Specific activity for Cy3 was determined by the following formula: (Concentration of Cy3)/(Concentration of cRNA)*1000=pmol of Cy3 per μg of cRNA. Samples for hybridization were normalized to 825 ng with a specific activity of >8.0 pmol of Cy3 per μg of cRNA.
Oligo gene expression arrays were hybridized using the Agilent Technologies (Santa Clara, Calif.) Gene Expression Hybridization kit, Wash Buffer kit, Stabilization and Drying Solution following the manufacturer's instructions. Hybridizations were carried out on a fully automated TECAN HS4800 PRO (TECAN U.S., Research Triangle Park, N.C.) hybridization instrument. The hybridization mixture was injected at 65° C. and incubated with agitation for 17 hrs after following a slide pre-hybridization step at 65° C. for 30 seconds. Slides were then washed at 37° C. for 1 minute using the Agilent GE Wash #1 followed by a second wash at 30° C. with Agilent GE Wash #2 for 1 minute and a final drying step using Nitrogen gas for 2 minutes and 30 seconds at 30° C. […]

The mark [3] stands for this setting: corn leaves, 2 h after spray, ≧2 fold change.
Setting [4] is: Arabidopsis leaves, 2 h after spray, ≧5 fold change.

For the compound `CC1=CC1` [Compound 1-MCP, 1-methylcyclopropene], the Regulation result in assay [1] (probe ZmOL3000012) was “up”; in assay [1] (probe ZmOL3007441) it was “down”; in assay [1] (probe ZmOL3020067), “Down”; in assay [1] (probe ZmOL3050321_2) it was “Up”. In addition, the “expression of carbonic anhydrase” value in assay [1] (corn) was “decreased”. The “overall effect of treatment on gene expression” value in assay [1] (corn) and in assay [2] (Arabidopsis) was “reduction in stress-related gene expression” in each case. Further, the “genes differentially expressed on the microarray vs untreated” value in assay [1] (setting [3]) is 934 genes; in assay [2] (setting [4]), 411 genes. Besides, the “subset of genes changed uniquely in response to this treatment” value in assay [1] (setting [3]) came out at 362 genes; in assay [2] (setting [4]), 202 genes. The “genes involved in translation whose expression changed that were induced” value in assay [1] (corn, genes unique to the treatment) is 9 out of 10. For the same compound, the “common genes following treatment with either 1-MCP or COMPASS alone” value in assay [2] (Arabidopsis, ≧5 fold change) is on record as 165 genes. The “Regulation^a” value in assay [2] (Table 3: Arabidopsis genes, 1-MCP alone, probe A_84_P20410) is given as “up”; in assay [2] (Table 3: Arabidopsis genes, 1-MCP alone, probe A_84_P786760), “down”; in assay [2] (Table 5: common genes, first column pair (a), probe A_84_P13916), “down”; in assay [2] (Table 5: common genes, first column pair (a), probe A_84_P507728), “up”.
